This note sets out measurements from patent US9657110B2, “Polypeptides and use thereof” (ASTON UNIVERSITY, priority 2011, dated 2017).

Experiment [1] relates to human recombinant TG2 binding to FN and its 45 kDa and 70 kDa fragments. The experiment is described as follows: Inhibition of purified TG2 binding to FN by TG2-derived peptides (ELISA). To be noted: peptide 10 μM-1 mM, effect at higher concentrations. How it is done:
96-well Microtitre 96-well plates were coated overnight with either full length FN (5 μg/ml), its 45 kDa (54 μg/ml) or 70 kDa (45 μg/ml) fragments, in 50 mM Tris-HCl, pH 7.4 as previously described (Verderio et al., 2003b). Wells were blocked with 3% BSA (w/v) in TBS pH 7.6. After three washes with PBS pH7.4, competitive peptides diluted in PBS, 2 mM EDTA, pH 7.4 were added to the wells at concentrations from 10 μM-1 mM and incubated for 1 h at room temperature. Wells were washed three times with PBS pH7.4 and purified human recombinant TG2 was added at a final concentration of 2 μg/ml in the presence of the different concentrations of P2 or P2s peptides and incubated for 1 h at room temperature. After three washes with PBS pH7.4 bound TG2 was measured via ELISA as introduced above. […] The treated TG2 was then detected by the ELISA assay as described above.
In general terms: In an ELISA, binding on a coated surface is turned into a signal by an enzyme label.

Experiment [2] concerns Human osteoblasts (HOB) cells. The experiment can be described thus: Cell attachment on wells coated with BSA-conjugated extended P1 peptide, BSA or FN. Type of experiment: cell-based. Conditions: soluble peptide 100 μg/ml, compared to RAD control peptide. How it is done:
96-Well ELISA plates were coated with 1 μg/ml of bovine serum albumin (BSA) conjugated peptide (“Extended P1”: […]c; SEQ ID NO:29) conjugated through its C-terminal cysteine via Beta-maleimidopropionic acid N-hydroxysuccinimide ester (MPS). Peptides were dissolved in NaHCO3/Na2CO3 coating buffer, pH 9.6 and plates coated at 4° C. for overnight. Wells coated with 1 μg/ml BSA NaHCO3/Na2CO3 coating buffer or 5 μg/ml FN in 50 mM Tris-HCl, pH 7.4 were used as the control coating materials. Human osteoblasts (HOB) cells in suspension was treated with 100 μg/ml RAD (GRADS; SEQ ID NO:9) or RGD (GRGDTP; SEQ ID NO:8) peptide for 20 min, the cells (3×10^4/well) were seeded into the wells, previously washed with 50 mM Tris-HCl, pH 7.4, and allowed to settle for 30 min. Attached cells were washed once with PBS, pH 7.4, and then fixed with 3.7% paraformaldehyde, further permeabilized with 0.1% (v/v) Triton® X-100 detergent in PBS, and co-stained with May-Grunwald and Giemsa stains as described previously.

The nature of experiment [3]: Binding of TG2 to heparin SEPHAROSE, elution with NaCl gradient. Conditions: compared with wt TG2. As to the method: HEK cells, transiently transfected with wild-type and mutant TG2 were washed twice with ice cold PBS, pH 7.4 and lysed by the addition of 150 μl of 20 mM Tris-HCl pH 7.4, 10 mM EGTA, 2 mM EDTA, 1 mM NaF and 1 mM Na3VO4. After clarification by centrifugation, lysates were mixed with 450 μl of 50 mM Tris-HCl, 1 mM EDTA, 1 mM DTT, pH 7.5 and applied to a 5 ml Heparin SEPHAROSE® column (GE Healthcare) equilibrated in 50 mM Tris-HCl, 1 mM EDTA, 1 mM DTT pH 7.5 (buffer) at a flow rate of 1 ml/min. For the analysis of GTP-bound TG2 (closed conformation), lysates were pre-incubated for 1 h at room temperature with 0.5 mM GTP in 50 mM Tris-HCl, 2 mM MgCl2, 1 mM EDTA, 1 mM DTT pH 7.5. For the analysis of inhibitor-reacted TG2 (open conformation), lysates were incubated with 0.5 mM of irreversible inhibitor R281 (Griffin et al., 2008) and 10 mM CaCl2. The column was washed with 25 ml of buffer and protein was eluted with a linear gradient of increasing NaCl concentration (0-1M) in buffer. Fractions were assayed for TG2 activity and analysed for the presence of TG2 antigen by SDS-PAGE and Western blotting using CUB7402.

In the next experiment the test system is FN. The experiment is described as follows: Measurement of TG2 binding to FN by ELISA (cell lysates). Conditions: lysates of transfected HEK293T/17 cells, normalised for expression. As to the method: Microtitre 96 well plates were coated with 50 μl of 5 μg/ml FN in 50 mM Tris-HCl, pH 7.4 at 4° C. overnight. The wells were blocked for 30 min with 5% (w/v) fat-free milk in PBS, pH 7.4 and washed twice with PBS-TWEEN® detergent, pH 7.4 and once with PBS, pH 7.4. Aliquots (100 μl) of cell lysate containing 60 μg protein were added to the FN-coated wells and incubated for 1 h at 37° C. After washing three times with PBS, pH 7.4, wells were blocked with 100 μl 3% BSA in PBS, pH 7.4 (blocking buffer) for 30 min at room temperature and then incubated with 100 μl Cub7402 (1:1000 dilution in blocking buffer) for 2 h at 37° C. After washing three times with PBS, pH 7.4, the wells were incubated with 100 μl rabbit anti-mouse IgG-HRP conjugated antibody (1:1000 dilution in blocking buffer) for 2 h at 37° C. HRP was detected by the addition of 100 μl of o-phenylenediamine substrate solution (SigmaFast […]™ OPD, Sigma). Colour development was terminated by the addition of 50 μl of 2.5M H2SO4 and absorbance at 490 nm was measured. The amount of TG2/mutant TG2 binding to the FN was normalised between samples by using the densitometry values from Western blotting for the TG protein found in each of the cell lysates used. α-Tubulin was used to normalise for any differences in protein loading.

Another experiment has as its system NIH 3T3 cells. The experiment is described as follows: Detection of TG2 at cell surface (biotinylation), in ECM and in culture medium of transfected cells. To be noted: transfected NIH 3T3 cells, biotinylation and Western blot, vs wild-type TG2. Type of experiment: cell-based, mouse. How it is done: Cell surface proteins were labelled by biotinylation as described previously (Wang et al., 2010). Briefly, cell monolayers were rinsed three times with ice-cold PBS pH 8.0 and labelled with 0.8 mM sulfo-NHS-LC-biotin dissolved in PBS pH 8.0 at 4° C. for 20 min. Cells were then washed with 50 mM Tris-HCl, pH 8.0 and lysed with 1% SDS at 4° C. in PBS pH8.0. Following denaturation at 95° C., cell lysates were clarified by centrifugation at 14,000×g at 20° C. and 200 μg of protein was incubated overnight at 4° C. with NEUTRAVIDIN® avidin protein-Agarose resin. After washing three times with PBS pH 8.0, the biotin-labelled proteins were dissolved in 2× Laemmli buffer separated by SDS-PAGE and subjected to Western blotting.
Following transfection, cells were incubated for 24 h with 10% (v/v) serum, which was replaced with 1% (v/v) serum and TG2 expression was allowed to proceed for a further 48 h. Proteins from 1 ml of medium were precipitated by the addition of ice cold 20% (w/v) trichloroacetic acid (TCA) to a final concentration of 10% (w/v) Pelleted proteins were then washed once with ice cold 10% (w/v) TCA, ethanol-acetone (1:1) and acetone, and resuspended in 2× Laemmli buffer (Sigma-Aldrich, UK) and analysed by SDS-PAGE and Western blot analysis using monoclonal anti-TG2 antibody (Cub7402). The remaining cells were detached with 2 mM EDTA in PBS, pH 7.4 and the ECM was extracted with 0.1% (w/v) deoxycholate in PBS, pH 7.4. The residual deoxycholate-insoluble ECM proteins were dissolved in 2× Laemmli buffer for further analysis by SDS-PAGE and Western blotting using Cub7402.
(A western blot detects proteins with antibodies after separation by electrophoresis.)

Chain of human recombinant TG2 binding to FN and its 45 kDa and 70 kDa fragments (P02751 291-608 limits assumed): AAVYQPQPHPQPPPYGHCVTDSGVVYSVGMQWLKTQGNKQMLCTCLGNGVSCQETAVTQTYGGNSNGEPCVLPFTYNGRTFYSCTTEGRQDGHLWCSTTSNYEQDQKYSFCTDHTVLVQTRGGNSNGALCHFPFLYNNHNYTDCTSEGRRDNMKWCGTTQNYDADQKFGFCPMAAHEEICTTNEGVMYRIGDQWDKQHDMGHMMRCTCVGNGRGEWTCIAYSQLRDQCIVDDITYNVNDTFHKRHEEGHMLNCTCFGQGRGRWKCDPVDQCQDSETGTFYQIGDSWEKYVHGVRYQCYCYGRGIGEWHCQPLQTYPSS

As to “EECRLAEELLEDVL (Scrambed Control Peptide) [P2s, scrambled P2 peptide, reference compound]”, in experiment [1], the “inhibition of wild type TG2 binding to FN and its 45 and 70 kDa fragments” value was “No effect”.
Same read-out and setting: next, “AEELVLERCDLELE (listed as Homo sapiens) [P2, peptide corresponding to the N-terminal end of TG2]”: “moderate but significant inhibition”.
“GRGDTP [RGD peptide, synthetic RGD peptide from Calbiochem]”: the “block of cell attachment on the FN matrix” value in experiment [2] is given as “around 50%”.

B1: D94A, D97A: TG2 fibronectin binding site mutant (protein, UniProt P21980 2-687, looked up, variant D94A D97A)
Protein-glutamine …: AEELVLERCDLELETNGRDHHTADLCREKLVVRRGQPFWLTLHFEGRNYEASVDSLTFSVVTGPAPSQEAGTKARFPLRDAVEEGDWTATVVAQQACTLSLQLTTPANAPIGLYRLSLEASTGYQGSSFVLGHFILLFNAWCPADAVYLDSEEERQEYVLTQQGFIYQGSAKFIKNIPWNFGQFEDGILDICLILLDVNPKFLKNAGRDCSRRSSPVYVGRVVSGMVNCNDDQGVLLGRWDNNYGDGVSPMSWIGSVDILRRWKNHGCQRVKYGQCWVFAAVACTVLRCLGIPTRVVTNYNSAHDQNSNLLIEYFRNEFGEIQGDKSEMIWNFHCWVESWMTRPDLQPGYEGWQALDPTPQEKSEGTYCCGPVPVRAIKEGDLSTKYDAPFVFAEVNADVVDWIQQDDGSVHKSINRSLIVGLKISTKSVGRDEREDITHTYKYPEGSSEEREAFTRANHLNKLAEKEETGMAMRIRVGQSMNMGSDFDVFAHITNNTAEEYVCRLLLCARTVSYNGILGPECGTKYLLNLNLEPFSEKSVPLCILYEKYRDCLTESNLIKVRALLVEPVINSYLLAERDLYLENPEIKIRILGEPKQKRKLVAEVSLQNPLPVALEGCTFTVEGAGLTEEQKTVEIPDPVEAGEEVKVRMDLLPLHMGLHKLVVNFESDKLKAVKGFRNVIIGPA
On to B1, for which, in experiment [3], the “binding to heparin SEPHAROSE (in words)” value is on record as “comparable elution profile to the wt enzyme”. Besides, in the experiment with FN, the “binding to FN compared to wild type TG2” value is “approximately 50%”. For the same molecule, the “presence on the cell surface” value in the experiment with NIH 3T3 cells is “greater levels”.
